Drawing on patent US12583858B2 (Genentech, Inc., priority 2015, dated 2026), this text covers EC50 for 41 molecules.

The target in the test is T1, TDO2 (Homo sapiens, UniProt P48775).
T1 construct: decreased levels of NFK in SW48 cells (high TDO expressing cells)
T1 sequence (P48775 whole entry): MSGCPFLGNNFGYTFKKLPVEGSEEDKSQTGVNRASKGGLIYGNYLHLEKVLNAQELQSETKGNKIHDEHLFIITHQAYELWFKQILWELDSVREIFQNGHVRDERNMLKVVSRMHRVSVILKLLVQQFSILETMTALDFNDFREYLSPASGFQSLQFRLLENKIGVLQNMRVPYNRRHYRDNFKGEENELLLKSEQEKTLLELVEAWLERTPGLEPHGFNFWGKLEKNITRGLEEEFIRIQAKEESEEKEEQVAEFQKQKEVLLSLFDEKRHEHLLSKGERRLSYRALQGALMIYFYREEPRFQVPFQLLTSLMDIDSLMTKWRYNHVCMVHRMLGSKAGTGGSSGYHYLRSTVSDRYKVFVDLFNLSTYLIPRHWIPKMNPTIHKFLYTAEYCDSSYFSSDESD
Description: TDO2 cell assay (NFK GreenScreen, SW48 cells). The class given is cell-based. Conditions: SW48 cells (high TDO expressing), 200 uM tryptophan, 24 hours; Table 3; read-out: TDO2 Cell Fluor EC50.
Consider `Cc1ccc2c(c1)C(C1COCC1O)n1cncc1-2` (single isomer, unassigned) [Example 110b], for which the EC50 (usually the midpoint of the concentration-response curve) is greater than 25 µM. With `OC1CCCC1C1c2ccccc2-c2cncn21` (single isomer, unassigned) [Example 02f] the figure was 0.07 µM.

`Cn1ncc2c1CCC(C1c3ccccc3-c3cncn31)C2O` (single isomer, unassigned) [Example 93e]: the EC50 was 4.3 µM. The value for `Cc1ccc2c(c1)C(C1COCC1O)n1cncc1-2` (single isomer, unassigned) [Example 110c] was 3.9 µM; that for `NC(=O)c1ccc2c(n1)CCC(C1c3ccccc3-c3cncn31)C2O` (single isomer, unassigned) [Example 104c] was 23 µM. The value for `NC(=O)c1cc2n(n1)CCC(C1c3ccccc3-c3cncn31)C2O` (single isomer, unassigned) [Example 172b] was 1.1 µM; that for `OC1c2ccnn2CCCC1C1c2ccccc2-c2cncn21` (single isomer, unassigned) [Example 133b] was 0.94 µM. The value for `O[C@@H]1c2ncsc2CC[C@H]1[C@H]1c2ccccc2-c2cncn21` [Example 125b, (4S,5S)-5-((S)-5H-imidazo[5,1-a]isoindol-5-yl)-4,5,6,7-tetrahydrobenzo[d]thiazol-4-ol] was 0.067 µM; that for `Cn1cc2c(n1)C(O)C(C1c3ccccc3-c3cncn31)CC2` (single isomer, unassigned) [Example 139-1a] was 5.3 µM; that for `CN(C)S(=O)(=O)N1CC[C@H]([C@H]2c3ccccc3-c3cncn32)[C@@H](O)C1` [Example 78a] was 4.5 µM.

For the molecule `NC(=O)c1ccc2c(c1)C(O)C(C1c3ccccc3-c3cncn31)CC2` (single isomer, unassigned) [Example 122b], the EC50 worked out at 12 µM. With `N#Cc1ccc2c(c1)C(O)C(C1c3ccccc3-c3cncn31)CC2` (single isomer, unassigned) [Example 113c] the figure was 0.06 µM. The value for `O[C@@H]1c2c(F)cnn2CC[C@H]1[C@H]1c2ccccc2-c2cncn21` (single isomer, unassigned) [Example 151d] was 0.13 µM; that for `OC1c2cnnn2CCC1C1c2ccccc2-c2cncn21` (single isomer, unassigned) [Example 139b] was 1 µM; that for `OC1(C2c3ccccc3-c3cncn32)CCCOC1` (single isomer, unassigned) [Example 144a] was 1 µM. As to `CC(=O)N1CCC(C2c3ccccc3-c3cncn32)C(O)C1` (single isomer, unassigned) [Example 09b, 1-(3-hydroxy-4-(5H-imidazo[5,1-a]isoindol-5-yl)piperidin-1-yl)ethan-1-one], the EC50 was 3 µM.

Take `OC1CCCCC1C1c2ccccc2-c2cncn21` (single isomer, unassigned) [Example 03c]: the EC50 was greater than 25 µM. The value for `OC1CCC1C1c2ccccc2-c2cncn21` (single isomer, unassigned) [Example 01h] was 16 µM; that for `C[C@@](O)(C1CCOCC1)[C@@H]1c2ccccc2-c2cncn21` (racemic) [Example 131a, Mixture of(S)-1-((R)-5H-imidazo[5,1-a]isoindol-5-yl)-1-(tetrahydro-2H-pyran-4-yl)ethan-1-ol and (R)-1-((S)-5H-imidazo[5,1-a]isoindol-5-yl)-1-(tetrahydro-2H-pyran-4-yl)ethan-1-ol] was 19 µM; that for `CS(=O)(=O)N1CC[C@@H]([C@@H]2c3ccccc3-c3cncn32)[C@H](O)C1` (single isomer, unassigned) [Example 64b] was 0.087 µM.

For `N#Cc1ccc2c(c1)[C@H](O)[C@@H]([C@@H]1c3ccccc3-c3cncn31)CC2` [Example 113a, (7R,8R)-8-hydroxy-7-((R)-5H-imidazo[5,1-a]isoindol-5-yl)-5,6,7,8-tetrahydronaphthalene-2-carbonitrile], the EC50 turned out to be 1 µM. As to `NC(=O)c1nc2c(s1)CCC(C1c3ccccc3-c3cncn31)C2O` (single isomer, unassigned) [Example 149c], the EC50 is 0.15 µM.

Turning to `OC1CC2(CCC2)C1C1c2ccccc2-c2cncn21` (single isomer, unassigned) [Example 67e], the EC50 turned out to be 0.044 µM. For the molecule `OC1C(C2c3ccc(F)cc3-c3cncn32)CC12CCOCC2` (single isomer, unassigned) [Example 109f], the EC50 was greater than 25 µM. The value for `OC1CCC1C1c2ccccc2-c2cncn21` (single isomer, unassigned) [Example 01g] was 3.3 µM. On to `NC(=O)c1ccc2c(n1)CCC(C1c3ccccc3-c3cncn31)C2O` (single isomer, unassigned) [Example 104d], for which the EC50 is 14 µM. The value for `OC1COCC1C1c2ccc(F)cc2-c2cncn21` (single isomer, unassigned) [Example 30d] was greater than 25 µM; that for `OC1c2nncn2CCC1C1c2ccccc2-c2cncn21` (single isomer, unassigned) [Example 146-1b] was 7.4 µM; that for `OC1CC2(CC2)C1C1c2ccccc2-c2cncn21` (single isomer, unassigned) [Example 72d] was 9 µM. The value for `OC1c2cncn2CCC1C1c2ccccc2-c2cncn21` (single isomer, unassigned) [Example 07f] was greater than 25 µM; that for `O[C@@H]1c2ccccc2CC[C@H]1[C@H]1c2ccccc2-c2cncn21` [Example 102e, (1S,2S)-2-((S)-5H-imidazo[5,1-a]isoindol-5-yl)-1,2,3,4-tetrahydronaphthalen-1-ol] was 0.032 µM. In the case of `OC1COCCC1C1c2ccccc2-c2cncn21` (single isomer, unassigned) [Example 06g], the EC50 amounted to 0.56 µM.

With `NC(=O)c1nc2c(s1)CCC(C1c3ccccc3-c3cncn31)C2O` (single isomer, unassigned) [Example 149h], the EC50 came out at 24 µM. For the molecule `CC1(C)C[C@H](O)[C@H]1[C@@H]1c2ccccc2-c2cncn21` [Example 22c, (1S,2R)-2-((R)-5H-imidazo[5,1-a]isoindol-5-yl)-3,3-dimethylcyclobutan-1-ol], the EC50 was greater than 25 µM. With `CC1(C)C[C@@H](O)[C@H]1[C@H]1c2ccccc2-c2cncn21` (single isomer, unassigned) [Example 22g] the figure was 0.78 µM.

For the molecule `OC1(C2c3ccccc3-c3cncn32)CCOC1` (single isomer, unassigned) [Example 129a], the EC50 is greater than 25 µM.

As for `Nc1cc2n(n1)CCC(C1c3ccccc3-c3cncn31)C2O` [Example 161d, (4S,5R)-2-amino-5-((S)-5H-imidazo[5,1-a]isoindol-5-yl)-4,5,6,7-tetrahydropyrazolo[1,5-a]pyridin-4-ol], the EC50 is 12 µM. With `CC1(C)OCC(C2c3ccccc3-c3cncn32)C1O` (single isomer, unassigned) [Example 85b] the figure was 0.13 µM; with `CCS(=O)(=O)N1CCC(O)C(C2c3ccccc3-c3cncn32)C1` (single isomer, unassigned) [Example 15a], greater than 25 µM; with `CC1(C)OC(C)(C)C(C2c3ccccc3-c3cncn32)C1O` (single isomer, unassigned) [Example 84f], greater than 25 µM.

With `CS(=O)(=O)c1ccc2c(c1)[C@@H](O)[C@H]([C@H]1c3ccccc3-c3cncn31)CC2` (single isomer, unassigned) [Example 142b], the EC50 is 5.9 µM.
